Measured values: patent US10538554B2, “Peptides and uses therefor as antiviral agents” (priority 2015, dated 2020)
Bridge positions count the residues as written; N and C are the ends. Square brackets hold non-standard residues; d marks the D form. Peptide text beside a SMILES is read from it.

Tests used:
H9N2 A/Iran/16/2000 = details: 48 h, 500 μM
[1] = test system: H1N1 A1/Malaysia/302/1954; details: A1/Malaysia/302/1954, 48 h, 500 μM
H3N8 A/Miami/2/63 = details: A/Miami/2/63, 48 h, 500 μM

| Structure (SMILES) | % inhibition H9N2 (H9N2 A/Iran/16/2000) [%] | % inhibition H1N1 [1] [%] | % inhibition H3N8 (H3N8 A/Miami/2/63) [%] |
| --- | --- | --- | --- |
| CC[C@@H](C)[C@H]1NC(=O)[C@@H](Cc2ccccc2)NC(=O)[C@@H](CCCNC(=N)N)NC(=O)[C@@H](CO)NC(=O)[C@@H](CC(=O)O)NC(=O)[C@@H]([C@H](C)O)NC(=O)[C@H](NC(=O)[C@@H](CCCCN)NC(=O)[C@@H](CCCCN)NC(=O)[C@@H](CCCNC(=N)N)NC(=O)[C@H](N)CCCNC(=N)N)CSSC[C@H](C(=O)O)NC(=O)[C@@H](CC(N)=O)NC1=O [PSP II A3, H-rrkkctdsrfinc-OH] (H-[dR][dR][dK][dK][dC][dT][dD][dS][dR][dF][dI][dN][dC]-OH; disulfide 5-13) | 40 | 44.8 | 85.2 |
| C[C@H](O)[C@H]1NC(=O)[C@H](N)CSSC[C@H](C(=O)O)NC(=O)[C@@H](CC(N)=O)NC(=O)[C@@H]([C@H](C)O)NC(=O)[C@@H](Cc2ccccc2)NC(=O)[C@@H](CCCNC(=N)N)NC(=O)[C@@H](CO)NC(=O)[C@@H](CCCCN)NC1=O [PSP 17, H-ctksrftnc-OH] (H-[dC][dT][dK][dS][dR][dF][dT][dN][dC]-OH; disulfide 1-9) | 9.1 | 30.8 | 74.2 |
| CC[C@@H](C)[C@H]1NC(=O)[C@@H](Cc2ccccc2)NC(=O)[C@@H](CCCNC(=N)N)NC(=O)[C@@H](CO)NC(=O)[C@@H](CCCNC(=N)N)NC(=O)[C@@H]([C@H](C)O)NC(=O)[C@H](NC(=O)[C@@H](CCCCN)NC(=O)[C@@H](CCCCN)NC(=O)[C@@H](CCCNC(=N)N)NC(=O)[C@H](N)CCCNC(=N)N)CSSC[C@H](C(=O)O)NC(=O)[C@@H](CC(N)=O)NC1=O [PSP II A15, H-rrkkctrsrfinc-OH] (H-[dR][dR][dK][dK][dC][dT][dR][dS][dR][dF][dI][dN][dC]-OH; disulfide 5-13) | 90 | 57.7 | 79.4 |
| C[C@H](O)[C@H]1NC(=O)[C@H](N)CSSC[C@H](C(=O)O)NC(=O)[C@@H](CC(N)=O)NC(=O)[C@@H](CCC(N)=O)NC(=O)[C@@H](Cc2ccccc2)NC(=O)[C@@H](CCCNC(=N)N)NC(=O)[C@@H](CO)NC(=O)[C@@H](CCCCN)NC1=O [PSP 14, H-ctksrfqnc-OH] (H-[dC][dT][dK][dS][dR][dF][dQ][dN][dC]-OH; disulfide 1-9) | 18.2 | 23.1 | 62.9 |
| CC[C@@H](C)[C@H]1NC(=O)[C@@H](Cc2ccccc2)NC(=O)[C@@H](CCCNC(=N)N)NC(=O)[C@@H](CO)NC(=O)CNC(=O)[C@@H]([C@H](C)O)NC(=O)[C@H](NC(=O)[C@@H](CCCCN)NC(=O)[C@@H](CCCCN)NC(=O)[C@@H](CCCNC(=N)N)NC(=O)[C@H](N)CCCNC(=N)N)CSSC[C@H](C(=O)O)NC(=O)[C@@H](CC(N)=O)NC1=O [PSP II A6, H-rrkkctGsrfinc-OH] (H-[dR][dR][dK][dK][dC][dT]G[dS][dR][dF][dI][dN][dC]-OH; disulfide 5-13) | 20 | 1.7 | 44.4 |
| CC[C@@H](C)[C@H]1NC(=O)[C@@H](Cc2ccccc2)NC(=O)[C@@H](CCCNC(=N)N)NC(=O)[C@@H](CO)NC(=O)[C@@H](CCC(=O)O)NC(=O)[C@@H]([C@H](C)O)NC(=O)[C@H](NC(=O)[C@@H](CCCCN)NC(=O)[C@@H](CCCCN)NC(=O)[C@@H](CCCNC(=N)N)NC(=O)[C@H](N)CCCNC(=N)N)CSSC[C@H](C(=O)O)NC(=O)[C@@H](CC(N)=O)NC1=O [PSP II A4, H-rrkkctesrfinc-OH] (H-[dR][dR][dK][dK][dC][dT][dE][dS][dR][dF][dI][dN][dC]-OH; disulfide 5-13) | 60 | 36.2 | 74.1 |
| C[C@H](O)[C@H]1NC(=O)[C@H](N)CSSC[C@H](C(=O)O)NC(=O)[C@@H](CC(N)=O)NC(=O)[C@@H](CO)NC(=O)[C@@H](Cc2ccccc2)NC(=O)[C@@H](CCCNC(=N)N)NC(=O)[C@@H](CO)NC(=O)[C@@H](CCCCN)NC1=O [PSP 16, H-ctksrfsnc-OH] (H-[dC][dT][dK][dS][dR][dF][dS][dN][dC]-OH; disulfide 1-9) | 45.5 | 13.5 | 71.1 |
